Consider 25 compounds from ChEMBL document CHEMBL5352440, “Promising antimalarials targeting apicoplast DNA polymerase from Plasmodium falciparum” (Eur J Med Chem, 2022).

For assay [1], the target named is T1, DNA-directed DNA polymerase (Enterobacteria phage T4) (UniProt P04415).
T1 sequence (whole entry): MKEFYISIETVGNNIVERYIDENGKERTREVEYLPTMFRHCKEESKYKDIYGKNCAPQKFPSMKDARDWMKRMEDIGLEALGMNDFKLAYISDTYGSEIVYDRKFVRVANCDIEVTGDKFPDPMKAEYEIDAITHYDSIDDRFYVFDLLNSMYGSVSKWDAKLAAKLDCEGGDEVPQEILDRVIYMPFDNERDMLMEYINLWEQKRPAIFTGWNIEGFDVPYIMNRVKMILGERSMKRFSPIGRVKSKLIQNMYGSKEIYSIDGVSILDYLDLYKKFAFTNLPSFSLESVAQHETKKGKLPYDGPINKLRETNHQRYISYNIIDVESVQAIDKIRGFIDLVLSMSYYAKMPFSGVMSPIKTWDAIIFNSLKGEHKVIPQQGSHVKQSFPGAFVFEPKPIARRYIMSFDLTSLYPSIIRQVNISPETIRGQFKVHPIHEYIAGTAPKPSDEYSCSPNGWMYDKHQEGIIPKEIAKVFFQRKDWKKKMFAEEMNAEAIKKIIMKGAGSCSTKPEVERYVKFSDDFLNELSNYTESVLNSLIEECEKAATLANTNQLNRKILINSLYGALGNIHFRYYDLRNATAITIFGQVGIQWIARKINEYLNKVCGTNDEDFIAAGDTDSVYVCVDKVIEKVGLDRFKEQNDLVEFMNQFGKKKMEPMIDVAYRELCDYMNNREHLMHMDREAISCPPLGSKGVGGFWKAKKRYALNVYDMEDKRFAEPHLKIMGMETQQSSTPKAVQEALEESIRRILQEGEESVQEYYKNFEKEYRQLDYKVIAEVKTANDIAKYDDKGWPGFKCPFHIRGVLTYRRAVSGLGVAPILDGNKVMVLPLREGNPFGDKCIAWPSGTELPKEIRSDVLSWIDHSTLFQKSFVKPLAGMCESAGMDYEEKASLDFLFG
The experiment in a line: Inhibition of Enterobacteria T4 phage DNA polymerase.

Assay [2] has as its system Plasmodium falciparum. In words: Inhibition of plasmodium falciparum apicoplast DNA polymerase exonuclease activity using blunt-ended double stranded oligonucleotide with 2-aminopurine at position 1 on 3' end as substrate assessed as exonuclease specific activity at 100 uM (reference value: 2.2 +/- 0.09%).
The target of assay [3] is DNA polymerase I (Escherichia coli) (UniProt P00582). The experiment in a line: Inhibition of Escherichia coli DNA polymerase I.
The test system of assay [4] is Plasmodium falciparum. The experiment in a line: Antiparasitic activity against Plasmodium falciparum NF54 with attB plasmid infected in red blood cells assessed as reduction in parasitemia incubated for 72 hrs. To be noted: NF54, Erythrocyte. The format is functional, organism-based, Red blood cell.
Assay [5] deals with Plasmodium falciparum. The experiment in a line: Inhibition of plasmodium falciparum apicoplast DNA polymerase exonuclease activity using blunt-ended double stranded oligonucleotide with 2-aminopurine at position 1 on 3' end as substrate assessed as reduction in exonuclease proofreading activity at 3'-5' direction at 100 uM relative to control.
A short description of assay [6]: Inhibition of plasmodium falciparum apicoplast DNA polymerase exonuclease activity using blunt-ended double stranded oligonucleotide with 2-aminopurine at position 1 on 3' end as substrate assessed as reduction in exonuclease proofreading activity at 3'-5' direction.
Assay [7] has as its system Plasmodium falciparum. In words: Non-competitive inhibition of Plasmodium falciparum apicoplast DNA polymerase assessed as inhibition constant for lower affinity site in presence of various concentrations of dNTPs by molecular beacon assay.
Assay [8] concerns Plasmodium falciparum. In words: Non-competitive inhibition of Plasmodium falciparum apicoplast DNA polymerase assessed as inhibition constant for higher affinity site in presence of various concentrations of dNTPs by molecular beacon assay.

Calls of active or inactive are those of the source. No cut-off for these calls is given here.

Chain of DNA polymerase I (Escherichia coli) (P00582 whole entry): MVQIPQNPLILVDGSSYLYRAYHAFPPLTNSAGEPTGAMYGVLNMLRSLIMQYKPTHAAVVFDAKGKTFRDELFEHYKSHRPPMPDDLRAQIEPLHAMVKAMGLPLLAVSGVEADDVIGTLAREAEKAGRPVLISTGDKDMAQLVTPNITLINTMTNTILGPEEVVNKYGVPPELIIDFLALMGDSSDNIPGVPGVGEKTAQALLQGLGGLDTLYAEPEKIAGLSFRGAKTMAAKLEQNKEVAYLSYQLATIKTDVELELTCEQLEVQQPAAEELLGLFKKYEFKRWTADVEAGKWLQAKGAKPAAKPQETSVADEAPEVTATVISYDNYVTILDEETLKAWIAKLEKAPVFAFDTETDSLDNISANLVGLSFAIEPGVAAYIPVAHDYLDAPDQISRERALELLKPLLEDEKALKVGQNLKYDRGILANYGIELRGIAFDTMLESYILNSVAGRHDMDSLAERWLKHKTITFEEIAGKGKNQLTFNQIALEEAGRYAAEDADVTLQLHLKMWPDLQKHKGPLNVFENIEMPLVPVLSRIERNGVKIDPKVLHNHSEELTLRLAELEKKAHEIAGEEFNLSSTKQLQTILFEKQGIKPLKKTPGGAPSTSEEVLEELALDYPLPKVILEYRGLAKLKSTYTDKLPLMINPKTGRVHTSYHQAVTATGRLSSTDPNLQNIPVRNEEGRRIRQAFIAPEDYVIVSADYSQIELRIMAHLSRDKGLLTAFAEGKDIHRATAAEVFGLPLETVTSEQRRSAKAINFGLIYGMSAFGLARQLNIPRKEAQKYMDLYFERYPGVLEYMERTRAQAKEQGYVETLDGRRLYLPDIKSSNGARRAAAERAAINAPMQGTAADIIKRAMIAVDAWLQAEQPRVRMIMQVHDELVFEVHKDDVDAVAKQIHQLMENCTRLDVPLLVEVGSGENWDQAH

For the compound `CC(C)(C)c1ccc(C(=O)Nc2c3c(nn2-c2cccc(C(F)(F)F)c2)CSC3)cc1`, the inhibition entry in assay [1] and in assay [3] was “inactive” throughout. Besides, the Activity in the assay with Plasmodium falciparum [2] is 2.4 U. In addition, the EC50 (commonly the concentration giving half of the maximal effect) with Plasmodium falciparum [4] stood at 2 µM. Besides, in the assay with Plasmodium falciparum [5], the inhibition (as a rule, the percentage by which the read-out fell short of the control) was less than 50%.
Regarding `CC(C)(C)c1ccc(S(=O)(=O)Nc2c3c(nn2-c2cccc(Cl)c2)CSC3)cc1`, the inhibition result in assay [1] and in assay [3] was “inactive” each time. In the assay on Plasmodium falciparum [2], the Activity stood at 0.4 U. Also, in assay [6], the half-inhibitory concentration (IC50) (usually the midpoint of a concentration-inhibition curve) amounted to 40 µM. Besides, the concentration giving a half-maximal response (EC50) in the assay on Plasmodium falciparum [4] is greater than 20 µM. In addition, the inhibition with Plasmodium falciparum [5] is greater than 90%.
Regarding `CC(C)(C)c1ccc(S(=O)(=O)Nc2c3c(nn2-c2ccc(Cl)cc2)CSC3)cc1`, the inhibition entry in assay [1] and in assay [3] was “inactive” throughout. Also, the Activity with Plasmodium falciparum [2] was 0.06 U. Besides, the concentration for half-maximal inhibition (IC50) in assay [6] amounted to 21 µM. For the same compound, the half-maximal effective concentration (EC50) in the assay on Plasmodium falciparum [4] is greater than 20 µM. Also, the inhibition in the assay with Plasmodium falciparum [5] is greater than 90%.
Take `CC(C)(C)c1ccc(C(=O)Nc2c3c(nn2-c2ccc(C(F)(F)F)cc2)CSC3)cc1`: the inhibition result in assay [1] and in assay [3] was “inactive” in each case. For the same compound, the Activity in the assay on Plasmodium falciparum [2] stood at 2 U. Besides, in the assay on Plasmodium falciparum [4], the EC50 is 4.8 µM. Further, in the assay on Plasmodium falciparum [5], the inhibition was less than 50%.
Turning to `Cc1ccc(-n2nc3c(c2NC(=O)Nc2ccc(C(C)(C)C)cc2)CSC3)cc1`, the inhibition entry in assay [1] and in assay [3] was “inactive” in each case. In addition, in the assay on Plasmodium falciparum [2], the Activity amounted to 1.8 U. Further, the 50% effective concentration (EC50) in the assay with Plasmodium falciparum [4] is 4.5 µM. In the assay on Plasmodium falciparum [5], the inhibition is less than 50%.
As to `CC(C)(C)c1ccc(C(=O)Nc2c3c(nn2-c2ccc(Cl)cc2)CSC3)cc1`, the inhibition entry in assay [1] and in assay [3] was “inactive” throughout. Further, the Activity in the assay on Plasmodium falciparum [2] came to 2.4 U. Further, the concentration for a half-maximal effect (EC50) in the assay with Plasmodium falciparum [4] is 4.2 µM. For the same compound, in the assay with Plasmodium falciparum [5], the inhibition was less than 50%.
For the compound `CC(C)(C)c1ccc(NC(=O)Nc2c3c(nn2-c2cnccn2)COC3)cc1`, the inhibition entry in assay [1] and in assay [3] was “inactive” in each case. Further, in the assay with Plasmodium falciparum [2], the Activity came out at 1.7 U. The concentration for a half-maximal effect (EC50) in the assay on Plasmodium falciparum [4] came to 2.5 µM.
For `Cc1cccc(-n2nc3c(c2NC(=O)Nc2ccc(C(C)(C)C)cc2)CSC3)c1`, the inhibition entry in assay [1] and in assay [3] was “inactive” in each case. Moreover, in the assay on Plasmodium falciparum [2], the Activity was 1.2 U. Moreover, the EC50 with Plasmodium falciparum [4] was 3.1 µM. Moreover, the inhibition in the assay with Plasmodium falciparum [5] was less than 50%.
Consider `CC(C)(C)c1ccc(S(=O)(=O)Nc2c3c(nn2-c2ccc(C(F)(F)F)cc2)CSC3)cc1`, for which the inhibition result in assay [1] and in assay [3] was “inactive” each time. In addition, the Activity with Plasmodium falciparum [2] is 0.01 U. For the same compound, the IC50 in assay [6] was 16 µM. Moreover, the EC50 in the assay on Plasmodium falciparum [4] was greater than 20 µM. Further, in the assay on Plasmodium falciparum [5], the inhibition was greater than 90%.
With `CC(C)(C)c1ccc(C(=O)Nc2c3c(nn2-c2cccc(Cl)c2)COC3)cc1`, the inhibition entry in assay [1] and in assay [3] was “inactive” throughout. The Activity in the assay with Plasmodium falciparum [2] was 1.2 U. For the same compound, the half-maximal effective concentration (EC50) with Plasmodium falciparum [4] came out at 4.6 µM.
For the compound `CC(C)(C)C(=O)Nc1c2c(nn1-c1cccc(Cl)c1)COC2`, the inhibition result in assay [1] and in assay [3] was “inactive” throughout. The Activity in the assay with Plasmodium falciparum [2] came to 2.6 U. Moreover, the EC50 in the assay on Plasmodium falciparum [4] is greater than 20 µM.
Consider `Cc1ccc(-n2nc3c(c2NS(=O)(=O)c2ccc(C(C)(C)C)cc2)CSC3)cc1`, for which the inhibition result in assay [1] and in assay [3] was “inactive” throughout. Also, in the assay on Plasmodium falciparum [2], the Activity turned out to be 2.2 U. The 50% effective concentration (EC50) with Plasmodium falciparum [4] is greater than 20 µM.
`CC(=O)Nc1c2c(nn1-c1cccc(Cl)c1)COC2`: the inhibition entry in assay [1] and in assay [3] was “inactive” each time. Besides, the Activity in the assay on Plasmodium falciparum [2] turned out to be 2.2 U. For the same compound, the EC50 with Plasmodium falciparum [4] was greater than 20 µM.
Turning to `CC(C)(C)c1ccc(NC(=O)Nc2c3c(nn2-c2cccc(Cl)c2)COC3)cc1`, the inhibition result in assay [1] and in assay [3] was “inactive” each time. Further, in the assay with Plasmodium falciparum [2], the Activity turned out to be 2.4 U. In addition, in the assay with Plasmodium falciparum [4], the EC50 was 0.74 µM.
As to `CC(C)(C)c1ccc(S(=O)(=O)Nc2c3c(nn2-c2cccc(C(F)(F)F)c2)CSC3)cc1`, the inhibition entry in assay [1] and in assay [3] was “inactive” each time. The Activity with Plasmodium falciparum [2] was found to be 0.06 U. Moreover, in the assay with Plasmodium falciparum [4], the EC50 was greater than 20 µM. Also, the inhibition with Plasmodium falciparum [5] was greater than 90%.
`CC(C)(C)c1ccc(NC(=O)Nc2c3c(nn2-c2ccncc2)COC3)cc1`: the inhibition result in assay [1] and in assay [3] was “inactive” throughout. Also, the Activity with Plasmodium falciparum [2] amounted to 1.3 U. In the assay with Plasmodium falciparum [4], the EC50 was 3.3 µM.
With `O=C(Nc1c2c(nn1-c1cccc(Cl)c1)COC2)c1ccc2ccccc2c1`, the inhibition result in assay [1] and in assay [3] was “inactive” throughout. Further, the Activity in the assay with Plasmodium falciparum [2] was found to be 1.8 U. In the assay on Plasmodium falciparum [4], the concentration for a half-maximal effect (EC50) is 8 µM.
`O=C(Nc1c2c(nn1-c1cccc(Cl)c1)COC2)c1ccc(-c2ccccc2)cc1`: the inhibition result in assay [1] and in assay [3] was “inactive” in each case. The Activity in the assay with Plasmodium falciparum [2] stood at 1.2 U. Moreover, in the assay on Plasmodium falciparum [4], the EC50 is greater than 20 µM.
For `CC(C)(C)c1ccc(NC(=O)Nc2c3c(nn2-c2ccc(C(F)(F)F)cc2)CSC3)cc1`, the inhibition result in assay [1] and in assay [3] was “inactive” throughout. The Activity in the assay with Plasmodium falciparum [2] was 2.1 U. The concentration for a half-maximal effect (EC50) in the assay with Plasmodium falciparum [4] came to 1.2 µM. Moreover, the inhibition in the assay with Plasmodium falciparum [5] was less than 50%.
`Cc1ccc(-n2nc3c(c2NC(=O)c2ccc(C(C)(C)C)cc2)CSC3)cc1`: the inhibition result in assay [1] and in assay [3] was “inactive” each time. Further, in the assay with Plasmodium falciparum [2], the Activity was 1.5 U. Moreover, the EC50 in the assay with Plasmodium falciparum [4] is greater than 20 µM. The inhibition in the assay with Plasmodium falciparum [5] is less than 50%.
For the compound `O=C(Nc1c2c(nn1-c1cccc(Cl)c1)COC2)C(F)(F)F`, the inhibition entry in assay [1] and in assay [3] was “inactive” each time. Besides, in the assay with Plasmodium falciparum [2], the Activity was 2.3 U. The half-maximal effective concentration (EC50) with Plasmodium falciparum [4] is greater than 20 µM.
With `Cc1cccc(-n2nc3c(c2NC(=O)c2ccc(C(C)(C)C)cc2)CSC3)c1`, the inhibition result in assay [1] and in assay [3] was “inactive” throughout. For the same compound, the Activity with Plasmodium falciparum [2] is 2.3 U. In the assay with Plasmodium falciparum [4], the EC50 turned out to be 5.9 µM. Also, the inhibition in the assay with Plasmodium falciparum [5] was less than 50%.
On to `Cc1cccc(-n2nc3c(c2NS(=O)(=O)c2ccc(C(C)(C)C)cc2)CSC3)c1`, for which the inhibition result in assay [1] and in assay [3] was “inactive” each time. The Activity in the assay on Plasmodium falciparum [2] turned out to be 2.3 U. The EC50 in the assay with Plasmodium falciparum [4] was greater than 20 µM.
With `CC(C)(C)c1ccc(C(=O)Nc2c3c(nn2-c2cccc(Cl)c2)C[S+]([O-])C3)cc1` (stereo not drawn), the inhibition result in assay [1] and in assay [3] was “inactive” throughout. Further, in the assay on Plasmodium falciparum [2], the Activity was 1.9 U. Further, the concentration for a half-maximal effect (EC50) in the assay with Plasmodium falciparum [4] came to 4.8 µM.
Turning to `CC(C)(C)c1ccc(NC(=O)Nc2c3c(nn2-c2ccc(Cl)cc2)CSC3)cc1`, the inhibition result in assay [1] and in assay [3] was “inactive” in each case. Moreover, the Activity with Plasmodium falciparum [2] was found to be 2.1 U. In the assay on Plasmodium falciparum [7], the KiL was 15 µM. In the assay with Plasmodium falciparum [4], the concentration for a half-maximal effect (EC50) is 1 µM. In addition, the KiH in the assay on Plasmodium falciparum [8] amounted to 1.97 µM. Besides, the inhibition with Plasmodium falciparum [5] was less than 50%.
